From patent publication US11840686B2, “Modulation of prekallikrein (PKK) expression” (Ionis Pharmaceuticals, Inc., priority 2013, dated 2023)
Values joined by “and” are separate entries in the source; they are usually repeats but may differ in a detail not shown here. Identical values can stand only once.

Columns and labels:
human PKK mRNA [1] = test: Antisense inhibition of human PKK mRNA in HepaRG cells, 5,000 nM (Example 2); type: cell-based; settings: HepaRG cells, 5,000 nM, electroporation, 24 hours
Summary of the method: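 HepaRG cells (20,000/well) electroporated with 5,000 nM MOE gapmer (phosphorothioate backbone, 5-methylcytosines) and harvested after ~24 h. PKK mRNA measured by qRT-PCR with primer probe set RTS3454, normalized to RIBOGREEN total RNA; percent inhibition versus untreated cells.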

human PKK mRNA [2] = test: Dose-dependent antisense inhibition of human PKK in HepaRG cells, 0.19-5.00 uM (Example 5); type: cell-based; settings: 4 point dose response curve (0.19-5.0 μM), HepaRG cells, electroporation
Summary of the method: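 HepaRG cells (20,000/well) were electroporated with antisense oligonucleotide at 0.19, 0.56, 1.67 and 5.00 μM and treated for about 16 hours. PKK mRNA was quantified by qRT-PCR with primer probe set RTS3454, normalised to RIBOGREEN total RNA, and IC50 was derived per oligonucleotide.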

human PKK mRNA [3] = test: Human PKK mRNA in liver of human KLKB1 transgenic mice (Example 7); type: in vivo
Summary of the method: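 Transgenic mice carrying a 37,390 bp human KLKB1 fragment dosed subcutaneously twice weekly for 3 weeks at 2.5, 5.0, 10 or 20 mg/kg/week; PBS controls. Liver harvested 48 h after the last dose. Human PKK mRNA measured by real-time PCR and expressed as % inhibition versus PBS.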

PKK mRNA = PKK mRNA in cynomolgus monkey liver (Example 8); type: in vivo; settings: primates, Example 8
Summary of the method: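 Cynomolgus monkeys were dosed with human antisense oligonucleotides cross-reactive with the rhesus sequence. Liver RNA taken on day 87 or 88, 48 h after the last dose, was assayed by real-time PCR (primer probe set RTS3455) and normalized to cyclophilin. Values are percent PKK mRNA inhibition versus PBS control.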

PKK protein [4] = test: PKK protein in cynomolgus monkey plasma by ELISA (Example 8); type: in vivo; settings: 40 mg/kg sc
Protocol: Approximately 0.9 mL of blood was collected each time from all available animals at pre-dose, day 17, day 31, day 45, day 59, and day 73, and placed in tubes containing 3.2% sodium citrate. The tubes were centrifuged (3000 rpm for 10 min at room temperature) to obtain plasma. PKK protein levels were measured in the plasma by ELISA. The results are presented in Table 52, expressed as percentage inhibition compared to the PBS control levels.

[5] = Tolerability / clinical observation of cynomolgus monkeys (Example 8); type: in vivo, cynomolgus monkey; settings: primates, Example 8
Protocol: Cynomolgus monkeys were treated with ISIS antisense oligonucleotides selected from studies described above. Antisense oligonucleotide efficacy and tolerability were evaluated. The human antisense oligonucleotides tested are cross-reactive with the rhesus genomic sequence (GENBANK Accession No. NW_001118167.1 truncated from nucleotides 2358000 to 2391000 and designated herein as SEQ ID NO: 18).
During the study period, the monkeys were observed a minimum of once daily for signs of illness or distress. Any animal experiencing more than momentary or slight pain or distress due to the treatment, injury or illness was promptly reported to the responsible veterinarian and the Study Director. Any animal in poor health or in a possible moribund condition was identified for further monitoring and possible euthanasia. […] The protocols described in the Example were approved by the Institutional Animal Care and Use Committee (IACUC).

[6] = Liver function markers in cynomolgus monkeys (Example 8); settings: cynomolgus monkey plasma, 40 mg/kg sc
Protocol: (§1) Prior to the study, the monkeys were kept in quarantine for a 30-day period, during which the animals were observed daily for general health. The monkeys were 2-4 years old and weighed between 2 and 4 kg. Ten groups of four randomly assigned male cynomolgus monkeys each were injected subcutaneously with ISIS oligonucleotide or PBS. PBS solution or ISIS oligonucleotides at a dose of 40 mg/kg were administered initially with a loading regimen consisting of four doses on the first week of the study (days 1, 3, 5, and 7), followed by a maintenance regimen consisting of once weekly administration starting on Day 14 (weeks 2 to 13). Subcutaneous injections were performed in clock-wise rotations at 4 sites on the back; one site per dose. The injection sites were delineated by tattoo, while sedated using ketamine, and were separated by a minimum of 3 cm.
To evaluate the effect of ISIS oligonucleotides on hepatic function, the monkeys were fasted overnight. Approximately, 1.5 mL of blood samples were collected from all the study groups. Blood was collected in tubes without anticoagulant for serum separation. The tubes were kept at room temperature for a minimum of 90 min and then centrifuged at 3,000 rpm for 10 min. Levels of various liver function markers were measured using a Toshiba 120FR NEO chemistry analyzer (Toshiba Co., Japan).

[7] = Hematological parameters in cynomolgus monkeys (Example 8); settings: cynomolgus monkey, 40 mg/kg sc, day 87 or day 88
Protocol: as §1
To evaluate any effect of ISIS oligonucleotides in cynomolgus monkeys on hematologic parameters, blood samples of approximately 1.2 mL of blood was collected pre-dose and on day 87 or day 88 from each of the available study animals in tubes containing K2-EDTA. Samples were analyzed for red blood cell (RBC) count, white blood cells (WBC) count, platelet count, hemoglobin content and hematocrit, using an ADVIA2120i hematology analyzer (SIEMENS, USA).

[8] = Urine protein/creatinine ratio in cynomolgus monkeys (Example 8); settings: cynomolgus monkey, 40 mg/kg sc
[9] = Kidney function: plasma BUN and creatinine in cynomolgus monkeys (Example 8); settings: 40 mg/kg s.c.
Protocol: as §1
To evaluate the effect of ISIS oligonucleotides on kidney function, the monkeys were fasted overnight. Approximately, 1.5 mL of blood samples were collected from all the study groups. Blood was collected in tubes without anticoagulant for serum separation. The tubes were kept at room temperature for a minimum of 90 min and then centrifuged at 3,000 rpm for 10 min. Levels of BUN and creatinine were measured using a Toshiba 120FR NEO chemistry analyzer (Toshiba Co., Japan).

[10] = C-reactive protein and complement C3 levels in cynomolgus monkeys (Example 8); settings: cynomolgus monkey plasma, 40 mg/kg sc
human PKK mRNA [11] = test: Antisense inhibition of human PKK mRNA in HepaRG cells, 1,000 nM, MOE/deoxy/cEt oligonucleotides (Example 3); type: cell-based; settings: HepaRG cells, 1,000 nM, electroporation, 24 hours
Summary of the method: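 HepaRG cells at 20,000 per well electroporated with 1,000 nM 16-mer MOE/cEt/deoxy gapmers (phosphorothioate, 5-methylcytosine). After about 24 h, PKK mRNA measured by qRT-PCR with primer probe set RTS3454, normalized to RIBOGREEN total RNA. Reported as percent inhibition versus untreated cells.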

PKK protein [12] = test: Plasma PKK protein levels in human KLKB1 transgenic mice (Example 7); type: in vivo; settings: transgenic mice
Summary of the method: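 Human KLKB1 transgenic mice dosed subcutaneously twice weekly for 3 weeks with antisense oligonucleotides at 2.5, 5.0, 10 or 20 mg/kg/week. Plasma collected 48 hours after the final dose; PKK protein expressed as percent inhibition relative to PBS-treated controls.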

mCes mCes mCes mCes mCes Tds Tds mCds Tds Tds Tds Ads Tds Ads Gds mCes mCes Aes Ges mCe [ISIS 546343]
inhibition of human PKK mRNA (human PKK mRNA [1]): 97% and 91%
IC50 (human PKK mRNA [2]): 400 nM
human PKK mRNA inhibition (human PKK mRNA [3]; transgenic mice, 2.5, 5.0, 10 or 20 mg/kg/week s.c., three values for four doses, dose not assignable): 46% and 66% and 86%
inhibiting PKK mRNA and protein expression in primates (PKK mRNA): effective for inhibiting PKK mRNA and protein expression
PKK protein level reduction (%) in plasma relative to control levels (PKK protein [4]; Day 17): 56%
PKK protein level reduction (%) in plasma relative to control levels (PKK protein [4]; Day 31): 74%
PKK protein level reduction (%) in plasma relative to control levels (PKK protein [4]; Day 45): 69%
PKK protein level reduction (%) in plasma relative to control levels (PKK protein [4]; Day 59): 70%
PKK protein level reduction (%) in plasma relative to control levels (PKK protein [4]; Day 73): 70%
tolerability in primates [5]: tolerable in primates
ALT [6]: 76 IU/L
AST [6]: 49 IU/L
Albumin [6]: 4.3 g/dL
HCT [7]: 42%
Hemoglobin [7]: 12.6 g/dL
Platelets [7]: 373000 µL⁻¹
RBC [7]: 5.5e+06 µL⁻¹
WBC [7]: 14000 µL⁻¹
Urine protein/creatinine ratio [8]: 0.01
Plasma BUN [9]: 26.2 mg/dL
Plasma Creatinine [9]: 1.0 mg/dL
C3 (% of baseline) [10]: 60 % of baseline
CRP [10]: 0.2 mg/dL

mCes Ges Aks Tds Ads Tds mCds Ads Tds Gds Ads Tds Tds mCks mCks mCe [ISIS 548048]
mRNA inhibition (human PKK mRNA [11]): 84%
human PKK mRNA inhibition (human PKK mRNA [3]; transgenic mice, 2.5 mg/kg/week s.c. twice a week for 3 weeks): 7%
human PKK mRNA inhibition (human PKK mRNA [3]; transgenic mice, 5.0 mg/kg/week s.c. twice a week for 3 weeks): 77%
human PKK mRNA inhibition (human PKK mRNA [3]; transgenic mice, 10 mg/kg/week s.c. twice a week for 3 weeks): 72%
human PKK mRNA inhibition (human PKK mRNA [3]; transgenic mice, 20 mg/kg/week s.c. twice a week for 3 weeks): 80%
human PKK protein inhibition (PKK protein [12]; 2.5 mg/kg/week s.c. twice a week for 3 weeks): 23%
human PKK protein inhibition (PKK protein [12]; 5.0 mg/kg/week s.c. twice a week for 3 weeks): 70%
human PKK protein inhibition (PKK protein [12]; 10 mg/kg/week s.c. twice a week for 3 weeks): 89%
human PKK protein inhibition (PKK protein [12]; 20 mg/kg/week s.c. twice a week for 3 weeks): 98%
inhibiting PKK mRNA and protein expression in primates (PKK mRNA): effective for inhibiting PKK mRNA and protein expression
PKK protein level reduction (%) in plasma relative to control levels (PKK protein [4]; Day 17): 90%
PKK protein level reduction (%) in plasma relative to control levels (PKK protein [4]; Day 31): 93%
PKK protein level reduction (%) in plasma relative to control levels (PKK protein [4]; Day 45): 95%
PKK protein level reduction (%) in plasma relative to control levels (PKK protein [4]; Day 59): 95%
PKK protein level reduction (%) in plasma relative to control levels (PKK protein [4]; Day 73): 95%
tolerability in primates [5]: tolerable in primates
ALT [6]: 47 IU/L
AST [6]: 44 IU/L
Albumin [6]: 4.2 g/dL
HCT [7]: 44%
Hemoglobin [7]: 13.4 g/dL
Platelets [7]: 393000 µL⁻¹
RBC [7]: 5.9e+06 µL⁻¹
WBC [7]: 11000 µL⁻¹
Urine protein/creatinine ratio [8]: 0.03
Plasma BUN [9]: 21.9 mg/dL
Plasma Creatinine [9]: 0.9 mg/dL
C3 (% of baseline) [10]: 69 % of baseline
CRP [10]: 0.2 mg/dL
